According to ChEMBL document CHEMBL5036301, “Heteroaryl ether analogues of an antileishmanial 7-substituted 2-nitroimidazooxazine lead afford attenuated hERG risk: In vitro and in vivo appraisal” (Eur J Med Chem, 2021):
In brackets after ≈: the same amount, converted by molar mass. One block for each molecule: values may come before it.

Legend:
Leishmania donovani [1] = test: Antileishmanial activity against Leishmania donovani amastigotes infected in BALB/C mouse assessed as reduction in parasite burden in liver tissue at 12.5 mg/kg, po administered once per day for 5 days relative to control; assay type: functional; conditions: 120 h, time 5 day
Leishmania donovani [2] = test: Antileishmanial activity against Leishmania donovani amastigotes infected in BALB/C mouse assessed as reduction in parasite burden in liver tissue at 6.25 mg/kg, po administered once per day for 5 days relative to control; assay type: functional; conditions: 120 h, time 5 day
Leishmania infantum [3] = test: Antileishmanial activity against Leishmania infantum amastigotes infected in golden hamster assessed as reduction in parasite load in bone marrow tissue at 50 mg/kg, po administered once daily for 5 days relative to control; assay type: functional; conditions: 120 h, time 5 day
Leishmania infantum [4] = test: Antileishmanial activity against Leishmania infantum amastigotes infected in golden hamster assessed as reduction in parasite load in liver tissue at 50 mg/kg, po administered once daily for 5 days relative to control; assay type: functional; conditions: 120 h, time 5 day
Leishmania infantum [5] = test: Antileishmanial activity against Leishmania infantum amastigotes infected in golden hamster assessed as reduction in parasite load in spleen tissue at 50 mg/kg, po administered once daily for 5 days relative to control; assay type: functional; conditions: 120 h, time 5 day
[6] = Volume of distribution at steady state in mouse at 1 mg/kg, iv measured upto 24 hrs LC-MS/MS analysis; conditions: in vivo
[7] = Clearance in mouse at 1 mg/kg, iv measured upto 24 hrs LC-MS/MS analysis; conditions: in vivo
in vivo [8] = conditions: mouse, po, 25 mg/kg
MRC5 = test: Cytotoxicity against human MRC5 cells assessed as cell viability after 72 hrs by fluorimetric analysis; assay type: ADME, cell-based; conditions: MRC5, 72 h
[9] = Initial plasma concentration in mouse at 1 mg/kg, iv measured upto 24 hrs LC-MS/MS analysis
Leishmania donovani [10] = test: Antileishmanial activity against Leishmania donovani amastigotes infected in mouse J774A.1 cells incubated for 72 hrs by luciferase assay; assay type: functional, organism-based; conditions: J774.A1, 72 h
in vivo [11] = conditions: mouse, po, 25 mg/kg; remark: listed apart in the source
in vivo [12] = conditions: mouse, po, 25 mg/kg; remark: listed apart in the source
[13] = Half life in mouse at 1 mg/kg, iv measured upto 24 hrs LC-MS/MS analysis; conditions: in vivo
[14] = Stability of compound in human liver microsomes assessed as percentage of parent compound remaining at 0.5 uM measured after 30 mins; assay type: ADME, Microsome; conditions: read-out: Stability
[15] = AUClast in mouse at 25 mg/kg, po measured upto 24 hrs LC-MS/MS analysis; conditions: in vivo
hERG (KCNH2) = hERG (KCNH2) (Homo sapiens, UniProt Q12809); test: Inhibition of human ERG expressed in HEK293 cells at 10 uM relative to control; assay type: cell-based; conditions: HEK293 cells expressing human ERG
Chain of hERG (KCNH2) (Q12809 whole entry): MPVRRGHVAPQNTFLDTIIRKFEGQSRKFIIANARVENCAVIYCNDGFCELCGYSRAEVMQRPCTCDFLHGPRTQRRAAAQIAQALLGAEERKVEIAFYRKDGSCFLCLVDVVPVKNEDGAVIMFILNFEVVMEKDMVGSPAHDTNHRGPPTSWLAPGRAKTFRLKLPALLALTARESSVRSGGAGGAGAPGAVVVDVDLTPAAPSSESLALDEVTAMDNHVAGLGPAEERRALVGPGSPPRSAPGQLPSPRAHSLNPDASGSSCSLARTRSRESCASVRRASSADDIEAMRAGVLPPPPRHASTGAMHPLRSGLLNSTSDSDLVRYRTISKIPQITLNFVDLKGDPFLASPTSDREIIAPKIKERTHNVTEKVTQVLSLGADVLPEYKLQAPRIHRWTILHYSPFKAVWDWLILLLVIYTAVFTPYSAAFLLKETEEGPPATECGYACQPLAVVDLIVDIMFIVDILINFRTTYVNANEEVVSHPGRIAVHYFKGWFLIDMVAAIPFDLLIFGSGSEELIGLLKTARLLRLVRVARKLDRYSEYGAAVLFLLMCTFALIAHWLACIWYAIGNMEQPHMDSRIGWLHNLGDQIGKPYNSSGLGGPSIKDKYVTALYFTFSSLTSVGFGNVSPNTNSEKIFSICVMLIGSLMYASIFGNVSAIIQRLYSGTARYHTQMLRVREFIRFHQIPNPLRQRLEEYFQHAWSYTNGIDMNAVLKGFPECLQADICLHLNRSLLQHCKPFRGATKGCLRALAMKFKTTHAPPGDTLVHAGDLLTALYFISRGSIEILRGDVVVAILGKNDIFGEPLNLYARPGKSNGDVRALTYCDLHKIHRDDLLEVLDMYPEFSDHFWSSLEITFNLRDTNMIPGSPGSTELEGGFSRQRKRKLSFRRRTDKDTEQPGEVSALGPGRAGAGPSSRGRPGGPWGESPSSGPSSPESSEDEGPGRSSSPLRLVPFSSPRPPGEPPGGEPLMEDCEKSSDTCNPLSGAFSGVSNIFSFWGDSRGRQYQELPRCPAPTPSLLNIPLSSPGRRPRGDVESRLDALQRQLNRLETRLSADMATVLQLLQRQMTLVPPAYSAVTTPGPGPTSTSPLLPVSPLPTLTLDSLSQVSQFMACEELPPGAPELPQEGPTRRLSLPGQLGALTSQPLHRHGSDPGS

[16] = Kinetic solubility of compound in water at pH7 by HPLC analysis; conditions: pH 7
[17] = AUClast in mouse at 1 mg/kg, iv measured upto 24 hrs LC-MS/MS analysis; conditions: in vivo
Trypanosoma cruzi = test: Antitrypanosomal activity against Trypanosoma cruzi Tulahuen CL2 infected in human MRC-5 cells assessed as parasite growth; assay type: functional, organism-based; conditions: Tulahuen CL2, MRC5
[18] = Stability of compound in CD-1 mouse liver microsomes assessed as percentage of parent compound remaining at 0.5 uM measured after 30 mins; assay type: ADME, Microsome; conditions: read-out: Stability
[19] = Stability of compound in hamster liver microsomes assessed as percentage of parent compound remaining at 0.5 uM measured after 30 mins; assay type: ADME, Cricetulus griseus, Microsome; conditions: chinese hamster, read-out: Stability
Leishmania infantum [20] = test: Antileishmanial activity against Leishmania infantum MHOM/MA(BE)/67 amastigotes infected in macrophages assessed as reduction in parasite burden by giemsa staining based microscopic analysis; assay type: functional, organism-based
Leishmania infantum [21] = test: animal or person; conditions: in Mesocricetus auratus, po, 120 h, read-out: INH
Description: Antileishmanial activity against Leishmania infantum amastigotes infected in golden hamster assessed as reduction in parasite load in spleen tissue at 12.5 mg/kg, po administered once daily for 5 days relative to control

Leishmania infantum [22] = test: Antileishmanial activity against Leishmania infantum amastigotes infected in golden hamster assessed as reduction in parasite load in liver tissue at 25 mg/kg, po administered once daily for 5 days relative to control; conditions: in Mesocricetus auratus, 120 h, read-out: INH
Leishmania infantum [23] = test: Antileishmanial activity against Leishmania infantum amastigotes infected in golden hamster assessed as reduction in parasite load in bone marrow tissue at 25 mg/kg, po administered once daily for 5 days relative to control; conditions: in Mesocricetus auratus, 120 h, read-out: INH
Leishmania infantum [24] = test: animal or person; conditions: in Mesocricetus auratus, po, 120 h, read-out: INH; remark: listed apart in the source
Description: Antileishmanial activity against Leishmania infantum amastigotes infected in golden hamster assessed as reduction in parasite load in bone marrow tissue at 12.5 mg/kg, po administered once daily for 5 days relative to control

Leishmania infantum [25] = test: animal or person; conditions: in Mesocricetus auratus, po, 120 h, read-out: INH; remark: listed apart in the source
Description: Antileishmanial activity against Leishmania infantum amastigotes infected in golden hamster assessed as reduction in parasite load in liver tissue at 12.5 mg/kg, po administered once daily for 5 days relative to control

Leishmania donovani [26] = test: Antileishmanial activity against Leishmania donovani amastigotes infected in BALB/C mouse assessed as reduction in parasite burden in liver tissue at 25 mg/kg, po administered once per day for 5 days relative to control; conditions: 120 h, read-out: INH
Leishmania donovani [27] = test: Antileishmanial activity against Leishmania donovani amastigotes infected in BALB/C mouse assessed as reduction in parasite burden in liver tissue at 3.13 mg/kg, po administered once per day for 5 days relative to control; assay type: functional; conditions: 120 h, time 5 day

Structure (SMILES): C[C@]1(COc2ccc(OC(F)(F)F)cc2)Cn2cc([N+](=O)[O-])nc2O1
inhibition in vivo at 12.5 mg/kg (Leishmania donovani [1]): > 99%
inhibition in vivo at 6.25 mg/kg (Leishmania donovani [2]): > 99%

Structure (SMILES): CC1(COc2ccc(OC(F)(F)F)cc2)CCn2cc([N+](=O)[O-])nc2O1 (stereo not given)
inhibition in vivo at 50 mg/kg (Leishmania infantum [3]): 99.5%
inhibition in vivo at 12.5 mg/kg (Leishmania donovani [1]): > 99%
inhibition in vivo at 50 mg/kg (Leishmania infantum [4]): 100%
inhibition in vivo at 50 mg/kg (Leishmania infantum [5]): 99.7%

Vd at 24 h [6]: 0.37 L/kg
clearance at 24 h [7]: 7.3 mL/min/kg
Cmax at 24 h (in vivo [8]): 760 ng/mL
C0 at 24 h [9]: 1900 ng/mL
IC50 (Leishmania donovani [10]): 0.12 µM
Tmax at 24 h (in vivo [11]): 2 h
bioavailability at 24 h (in vivo [12]): 15%
AUC at 24 h [13]: 580 ng·h/mL
remaining at 0.5 h, 0.5 µM [14]: 99%
AUC(0-t) at 24 h [15]: 3830 ng·h/mL
solubility kinetic [16]: 6.6 µg/mL (≈ 21.2 µM)
AUC(0-t) at 24 h [17]: 2070 ng·h/mL
remaining at 0.5 h, 0.5 µM [18]: 100%
remaining at 0.5 h, 0.5 µM [19]: 90%
IC50 (Leishmania infantum [20]): > 64 µM
Structure (SMILES): O=[N+]([O-])c1cn2c(n1)OC(COc1ncc(Cl)cn1)CC2 (stereo not given)
IC50 (MRC5): > 64 µM
inhibition at 10 µM (hERG (KCNH2)): 12%
IC50 (Trypanosoma cruzi): 39 µM

Structure (SMILES): C[C@]1(COc2ccc(OC(F)(F)F)cc2)CCn2cc([N+](=O)[O-])nc2O1
inhibition in vivo at 12.5 mg/kg (Leishmania infantum [21]): 59.5%
inhibition in vivo at 50 mg/kg (Leishmania infantum [3]): 96.7%
inhibition in vivo at 25 mg/kg (Leishmania infantum [22]): 93.6%
inhibition in vivo at 25 mg/kg (Leishmania infantum [23]): 81.5%
inhibition in vivo at 12.5 mg/kg (Leishmania infantum [24]): 42.5%
IC50 (Leishmania donovani [10]): 0.06 µM
inhibition in vivo at 12.5 mg/kg (Leishmania infantum [25]): 67.8%
inhibition in vivo at 50 mg/kg (Leishmania infantum [4]): 99.6%
inhibition in vivo at 25 mg/kg (Leishmania donovani [26]): > 99%
inhibition in vivo at 50 mg/kg (Leishmania infantum [5]): 98%
inhibition in vivo at 3.13 mg/kg (Leishmania donovani [27]): 51%
